The values that follow come from US7588752B2, “Antimicrobial peptides” (The University of Melbourne, priority 1997, dated 2009).

Assay [1] has as its system Streptococcus mutans Ingbritt. It counts as cell-based. The conditions noted are these: RP-HPLC of endo Glu-C digest of TCA-soluble UF whey.
Procedure: Peaks were collected and assayed for antimicrobial activity. Antimicrobial assays were carried out in liquid growth medium using sterile 96 well plates, each well having a capacity of 300 μL. The growth medium consisted of Todd Hewit broth (36.4 g/L), Yeast Extract (5.0 g/L) with 100 mmol/L potassium phosphate buffer. Routinely the pH of the growth medium was adjusted to 6.3. An inoculum of approximately 1.5×10^2 cells (Streptococcus sanguis, Streptococcus mutans, Porphyromonas gingivalis) that had been harvested during the exponential phase of growth, was added to each well. The ionophore gramicidin (40 μmol/L final concentration) was added to a series of wells as a negative control. Positive controls contained only the inoculum and the growth medium. Growth was determined over a 30 hour period after inoculation by measuring the optical density of the cell suspensions at a wavelength of 650 nm (OD650), using a microplate reader (Biorad, model 450). Growth was determined by subtracting the initial reading, taken immediately after inoculation from the final reading (maximum culture OD). […]
The subject of assay [2] is Streptococcus sanguinis (formerly S. sanguis). The assay can be described thus: Antibacterial growth assay in liquid medium, 96 well plates, OD 650 nm. The assay is classed as cell-based. The conditions noted are these: peaks of tryptic hydrolysate of sodium caseinate. The procedure: Hydrolysis was terminated by the addition of 1M HCl to pH 4.6. The hydrolysate was centrifuged (11,600 g for 10 min) and then filtered through a 0.2 μm PVDF filter before being applied to a 7 μm C8 (Brownlee) reversed-phase column (4.6×220 mm). The sample was eluted using an Applied Biosystems 140 A Solvent Delivery System to generate a stepwise linear gradient from 0-20% B in 2 min followed by 20-45% B in 40 min at a flow rate of 1 ml/min. Eluant A was 0.1% (v/v) TFA in water and eluant B was 80% (v/v) acetronitrile, 0.1% (v/v) TFA in water. The eluant was monitored using an Applied Biosystems 1000S Diode Array detector at a primary wavelength of 215 nm. Peaks were collected and assayed for antimicrobial activity. […] Growth was determined over a 30 hour period after inoculation by measuring the optical density of the cell suspensions at a wavelength of 650 nm (OD650), using a microplate reader (Biorad, model 450). Growth was determined by subtracting the initial reading, taken immediately after inoculation from the final reading (maximum culture OD). […]
The antibacterial assay was conducted in sterile 96 well plates (Becton Dickinson, Melbourne, Australia). […] Growth of the bacterium was determined as the difference between the final and initial Optical Density (OD) 650 nm readings using a microplate reader (BIORAD, model 450, NSW, Australia). […]

The test system of the next assay is Klebsiella pneumoniae. The following applies: concentrations as low as 0.1 μM; injected intravenously before lethal infectious challenge; cited from earlier work.
For another assay, the system named is Escherichia coli. The conditions noted are these: cited from earlier work.
The next assay deals with Staphylococuus carnosus. The following applies: cited from earlier work.

No end group written: not given here.

On to “AVESTVATLEDSPEVIESPPE [Ser(P)^149 κ-casein A (138-158)]”, for which the “antimicrobial activity against S. mutans” value in assay [1] was “exhibited antimicrobial activity”.

On to “DMPIQAFLLYQQPVLGPVR (bovine) [β-casein (184-202)]”, for which, in assay [2], the “antimicrobial activity against Streptococcus sanguinis” value was “showed activity”.

As for “PGPIPN (bovine) [β-casein (63-68), casein peptide of Migliore-Samour et al. (1989)]”, the “protective effect in mice against Klebsiella pneumoniae infection” value in the assay with Klebsiella pneumoniae is recorded as “significant protective effect”.

Turning to “Ser(P)^149 κ-casein (117-169): tryptic casein peptide, genetic variant not specified ((SEQ ID NO:12) and (SEQ ID NO:14))”, the “antimicrobial activity against Streptococcus sanguinis” value in assay [2] is recorded as “showed activity”.

For “TTMPLW (bovine) [αs1-casein (194-199), casein peptide of Migliore-Samour et al. (1989)]”, in the assay with Klebsiella pneumoniae, the “protective effect in mice against Klebsiella pneumoniae infection” value is “significant protective effect”.

As for “αs2-casein (fl72-203): antibacterial peptide from bovine αs2-casein released by treating milk with glacial acetic acid (Zucht et al., 1995) (QKFALPQYLKTVYQHQKAMKPWIQPKTKVIPY; UniProt P02663 187-218, looked up, fragment)”, in the assay on Escherichia coli, the “inhibition of growth of Escherichia coli” value was “inhibit the growth”. Further, in the assay with Staphylococuus carnosus, the “inhibition of growth of Staphylococuus carnosus” value is reported as “inhibit the growth”.
